According to the supplement of paper PMC10307832:

Assays:
Test in all cases: relative viability (nuclei count vs DMSO), 5 days (fraction); higher = more cells survive
Adavosertib + Navitoclax = compound: C=CCn1c(=O)c2cnc(Nc3ccc(N4CCN(C)CC4)cc3)nc2n1-c1cccc(C(C)(C)O)n1 [Adavosertib] + CC1(C)CCC(c2ccc(Cl)cc2)=C(CN2CCN(c3ccc(C(=O)NS(=O)(=O)c4ccc(N[C@H](CCN5CCOCC5)CSc5ccccc5)c(S(=O)(=O)C(F)(F)F)c4)cc3)CC2)C1 [Navitoclax] (partner 0.5 µM)
In short: (§1)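 Five library-drug doses in √10 steps were combined with a fixed anchor-drug dose, or a single drug was given alone, by pin tool to lung cancer cell lines in 1536-well plates the day after seeding. Nuclei were stained and counted after 5 days. Relative viability is the nuclei count in treated wells over that in vehicle wells, taken as the median of duplicate plates.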

Adavosertib + Lapatinib = compound: C=CCn1c(=O)c2cnc(Nc3ccc(N4CCN(C)CC4)cc3)nc2n1-c1cccc(C(C)(C)O)n1 [Adavosertib] + CS(=O)(=O)CCNCc1ccc(-c2ccc3ncnc(Nc4ccc(OCc5cccc(F)c5)c(Cl)c4)c3c2)o1 [Lapatinib] (partner 2 µM)
In short: as §1

Nelarabine + Luminespib = compound: COc1nc(N)nc2c1ncn2[C@@H]1O[C@H](CO)[C@@H](O)[C@@H]1O [Nelarabine] + CCNC(=O)c1noc(-c2cc(C(C)C)c(O)cc2O)c1-c1ccc(CN2CCOCC2)cc1 [Luminespib] (partner 0.01 µM)
In short: as §1

Nelarabine + Dasatinib = compound: COc1nc(N)nc2c1ncn2[C@@H]1O[C@H](CO)[C@@H](O)[C@@H]1O [Nelarabine] + Cc1nc(Nc2ncc(C(=O)Nc3c(C)cccc3Cl)s2)cc(N2CCN(CCO)CC2)n1 [Dasatinib] (partner 0.075 µM)
In short: as §1

Cell Line	relative viability (Adavosertib + Navitoclax; first compound 0.01 µM)	relative viability (Adavosertib + Navitoclax; first compound 0.03162 µM)	relative viability (Adavosertib + Navitoclax; first compound 0.1 µM)	relative viability (Adavosertib + Navitoclax; first compound 0.3162 µM)	relative viability (Adavosertib + Lapatinib; first compound 0.01 µM)	relative viability (Adavosertib + Lapatinib; first compound 0.03162 µM)	relative viability (Adavosertib + Lapatinib; first compound 0.1 µM)	relative viability (Adavosertib + Lapatinib; first compound 0.3162 µM)	relative viability (Nelarabine + Luminespib; first compound 0.01 µM)	relative viability (Nelarabine + Luminespib; first compound 0.03162 µM)	relative viability (Nelarabine + Luminespib; first compound 0.1 µM)	relative viability (Nelarabine + Luminespib; first compound 0.3162 µM)	relative viability (Nelarabine + Luminespib; first compound 1 µM)	relative viability (Nelarabine + Dasatinib; first compound 0.01 µM)	relative viability (Nelarabine + Dasatinib; first compound 0.03162 µM)	relative viability (Nelarabine + Dasatinib; first compound 0.1 µM)	relative viability (Nelarabine + Dasatinib; first compound 0.3162 µM)	relative viability (Nelarabine + Dasatinib; first compound 1 µM)
EKVX	0.927	0.929	0.944	1.2	0.216	0.233	0.201	0.225	0.946	0.771	0.809	0.796	0.915	0.509	0.468	0.396	0.575	0.608
NCI-H1975	1.17	1.25	1.01	0.483	0.878	0.805	0.895	0.667	0.237	0.244	0.169	0.198	0.464	0.431	0.343	0.316	0.434	0.462
NCI-H520	1.12	1.1	1.09	0.791	0.923	0.822	0.802	0.858	0.252	0.249	0.184	0.27	0.218	0.245	0.22	0.2	0.214	0.207
NCI-H647	1.15	1.17	1.12	0.985	1.23	1.08	1.08	0.727	0.177	0.111	0.193	0.128	0.136	0.152	0.252	0.136	0.183	0.261
NCI-H1755	0.983	1	1.02	0.926	1.12	1.02	1.04	1.09	0.463	0.456	0.755	0.539	0.56	0.457	0.349	0.135	0.506	0.479
SK-LU-1	0.759	0.594	0.989	0.238	0.857	0.834	0.787	0.281	0.225	0.154	0.215	0.199	0.223	0.179	0.105	0.142	0.171	0.165
LXF-289	0.959	1.03	0.992	1.03	0.905	0.894	0.906	0.922	0.792	0.655	0.659	0.832	0.578	0.156	0.218	0.146	0.202	0.196
NCI-H1993	1.02	0.977	1.01	0.934	0.798	0.865	0.894	0.8	0.861	0.721	0.917	0.965	0.798	0.692	0.505	0.553	0.665	0.635
LCLC-97TM1		0.372	0.473	0.257		0.703	0.804	0.686	0.912	0.688	0.856	0.713	0.78	1.03	0.506	0.779	0.95	0.806
